Results: the CheMixHub viscosity set
± gives the uncertainty stated by the source.

Assay: xn = mol fraction of the nth substance listed

CC(O)CN (centres undefined) + O
viscosity [mPa·s]
Settings	293.15 K	298.15 K	303.15 K	308.15 K	313.15 K	318.15 K	323.15 K
101 kPa, x1 = 0.01	–	–	–	–	–	0.7225 ± 0.0064	–
101 kPa, x1 = 0.06	–	–	–	–	–	1.155 ± 0.008	–
101 kPa, x1 = 0.5995	–	–	–	–	12.85 ± 0.41	–	–
101.3 kPa, x1 = 0.0126	1.228 ± 0.018	1.03 ± 0.015	0.894 ± 0.014	0.781 ± 0.013	0.682 ± 0.011	–	0.573 ± 0.008
101.3 kPa, x1 = 0.026	1.488 ± 0.023	1.273 ± 0.019	1.122 ± 0.017	0.99 ± 0.014	0.868 ± 0.012	–	0.72 ± 0.01
101.3 kPa, x1 = 0.0565	2.334 ± 0.026	1.985 ± 0.023	1.721 ± 0.019	1.493 ± 0.016	1.299 ± 0.014	–	1.049 ± 0.011

CCC(=O)OC + CCCCCCC
viscosity [mPa·s], 101.3 kPa
Settings	308.15 K	318.15 K
x1 = 0.0447	0.354 ± 0.004	0.322 ± 0.003
x1 = 0.1083	0.355 ± 0.004	0.326 ± 0.003
x1 = 0.1932	0.358 ± 0.004	0.332 ± 0.003
x1 = 0.3018	0.362 ± 0.004	0.34 ± 0.003
x1 = 0.4146	0.369 ± 0.004	0.349 ± 0.004
x1 = 0.5227	0.377 ± 0.004	0.359 ± 0.004
x1 = 0.5693	0.381 ± 0.004	0.363 ± 0.004
x1 = 0.7002	0.395 ± 0.004	0.377 ± 0.004
x1 = 0.7986	0.407 ± 0.004	0.389 ± 0.004
x1 = 0.9016	0.421 ± 0.004	0.402 ± 0.004
x1 = 0.9509	0.429 ± 0.004	0.409 ± 0.004

N#Cc1ccccc1 + CCO
viscosity [mPa·s], 101.33 kPa
Settings	x1 = 0.1051	x1 = 0.2045	x1 = 0.3213	x1 = 0.4131	x1 = 0.4921	x1 = 0.6214	x1 = 0.6673	x1 = 0.769	x1 = 0.9218
303.15 K	0.923 ± 0.028	0.891 ± 0.027	0.897 ± 0.023	0.901 ± 0.022	0.912 ± 0.02	0.938 ± 0.02	0.963 ± 0.019	1.006 ± 0.019	1.075 ± 0.02
308.15 K	0.846 ± 0.025	0.817 ± 0.023	0.826 ± 0.022	0.834 ± 0.02	0.849 ± 0.019	0.873 ± 0.018	0.893 ± 0.019	0.935 ± 0.018	1.005 ± 0.017
313.15 K	0.775 ± 0.023	0.75 ± 0.02	0.762 ± 0.02	0.772 ± 0.019	0.785 ± 0.018	0.813 ± 0.017	0.828 ± 0.017	0.87 ± 0.017	0.939 ± 0.015

CC(C)C(C)C + CCCCCCCCCCCCCCCC
298 K, 101.33 kPa
Settings	viscosity [mPa·s]
x1 = 0.0846	2.773 ± 0.035
x1 = 0.2077	2.325 ± 0.03
x1 = 0.2966	2.045 ± 0.027
x1 = 0.3988	1.74 ± 0.024
x1 = 0.4973	1.432 ± 0.02
x1 = 0.6023	1.135 ± 0.017
x1 = 0.7034	0.8764 ± 0.013
x1 = 0.8019	0.6623 ± 0.011
x1 = 0.9002	0.4751 ± 0.0081

CCCCn1cc[n+](C)c1.[Cl-] + CO
101 kPa
Settings	viscosity [mPa·s]
293.15 K, x2 = 0.5001	65.2 ± 11
293.15 K, x2 = 0.7002	8.41 ± 1.4
298.15 K, x2 = 0.7015	7.51 ± 1.2
308.15 K, x2 = 0.7001	6.61 ± 1.1

NNc1ccccc1 + Oc1ccccc1Cl
323.1 K, 101 kPa
Settings	viscosity [mPa·s]
x1 = 0.1706	3.51 ± 0.082
x1 = 0.401	7.16 ± 0.14
x1 = 0.508	8.27 ± 0.17
x1 = 0.536	8.18 ± 0.16
x1 = 0.781	6.955 ± 0.14

CCCOCCO + CC(=O)N(C)C
298.15 K, 101 kPa
Settings	viscosity [mPa·s]
x1 = 0.0049	0.951 ± 0.012
x1 = 0.0086	0.956 ± 0.012
x1 = 0.0134	0.961 ± 0.012
x1 = 0.0272	0.982 ± 0.012
x1 = 0.0419	1.01 ± 0.013
x1 = 0.0739	1.049 ± 0.013
x1 = 0.1253	1.125 ± 0.014
x1 = 0.178	1.202 ± 0.015
x1 = 0.2555	1.322 ± 0.017
x1 = 0.3191	1.426 ± 0.018
x1 = 0.3487	1.478 ± 0.019
x1 = 0.3842	1.536 ± 0.02
x1 = 0.4022	1.578 ± 0.02
x1 = 0.4678	1.679 ± 0.022
x1 = 0.5258	1.786 ± 0.024
x1 = 0.5917	1.897 ± 0.026
x1 = 0.6504	1.987 ± 0.027
x1 = 0.725	2.094 ± 0.029
x1 = 0.8523	2.26 ± 0.033
x1 = 0.9508	2.339 ± 0.035
x1 = 0.979	2.345 ± 0.035
